Consider five compounds from patent US5468760A, “Aralkyl-N-hydroxyureas as inhibitors of 5-lipoxygenase and oxidation of low density lipoprotein” (American Home Products Corporation, priority 1993, dated 1995).

The target in assay [1] is T1, 5-Lipoxygenase (Homo sapiens, UniProt P09917).
T1 construct: endogenous in cells; host or cells: human whole blood from male donors (results expressed per 10^6 neutrophils)
T1 sequence (P09917 1-674): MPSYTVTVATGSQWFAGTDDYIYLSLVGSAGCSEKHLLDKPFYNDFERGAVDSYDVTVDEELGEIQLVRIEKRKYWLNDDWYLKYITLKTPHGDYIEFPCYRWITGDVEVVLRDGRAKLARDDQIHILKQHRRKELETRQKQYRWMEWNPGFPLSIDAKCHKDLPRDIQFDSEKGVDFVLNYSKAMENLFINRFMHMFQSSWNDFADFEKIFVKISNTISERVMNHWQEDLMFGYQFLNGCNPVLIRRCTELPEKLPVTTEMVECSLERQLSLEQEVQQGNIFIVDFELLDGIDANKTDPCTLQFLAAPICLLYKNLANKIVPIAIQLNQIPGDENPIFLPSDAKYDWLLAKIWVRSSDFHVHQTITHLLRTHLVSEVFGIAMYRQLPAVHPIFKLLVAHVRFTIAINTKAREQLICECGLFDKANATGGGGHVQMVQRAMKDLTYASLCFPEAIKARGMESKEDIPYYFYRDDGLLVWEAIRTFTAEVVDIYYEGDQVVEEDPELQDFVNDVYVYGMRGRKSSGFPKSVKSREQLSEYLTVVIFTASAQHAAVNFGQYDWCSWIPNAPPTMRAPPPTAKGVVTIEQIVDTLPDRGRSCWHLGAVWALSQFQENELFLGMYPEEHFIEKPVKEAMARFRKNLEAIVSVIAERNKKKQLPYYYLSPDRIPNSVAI
The assay can be described thus: Inhibition of 5-Lipoxygenase in Human Whole Blood (LTB4, calcium ionophore A23187). It is filed as cell-based. The following applies: 1 μM. The protocol: 1. Inhibition of 5-Lipoxygenase in Human Whole Blood
Blood is obtained in 50-100 ml quantities from male donors. White blood cell counts and differentials are made. Two ml of blood are placed in a 15 ml polypropylene test tube. Test compounds are solubilized in dimethylsulfoxide and diluted in 1:10 in 10% bovine serum albumin in phosphate buffered saline, pH 7.4 resulting in a final dimethylsulfoxide concentration of 0.1% in the blood. Then, solutions of test compounds are added to the blood in a shaking water bath at 37° C. for 10 minutes prior to the addition of 30 μM calcium ionophore (A23 187, Sigma). After ionophore administration, whole blood samples are mixed and incubated for 20 minutes at 37° C. in a shaking water bath. Incubation is terminated by placing samples in an ice bath and immediately adding ethylene glycol-bis-(β-aminoethyl ether)-N,N,N',N'-tetraaceticacid (10 mM). Samples are mixed and centrifuged at 1200 x g for 15 minutes at 4° C. Preparation of samples for evaluation by RIA or ELISA is carried out by the following protocol. Plasma is removed from sample tubes, placed in 15 ml polypropylene test tubes containing 8 ml methanol, and then vortexed to precipitate protein. Samples are stored at -70° C. overnight. The next day, samples are centrifuged at 200 x g for 15 minutes at 4° C. to pellet the precipitate. Samples are dried in a Savant SpeedVac Concentrator, Model SVC 200H, reconstituted to original volume with ice cold RIA or ELISA buffer, and stored at -70° C. until assayed. The assay for eicosanoids (LTB4, TxB2, and PGE2) is performed as described by the manufacturer of the [^3 H]-RIA kit or ELISA kit (LTB4 -Amersham, TxB2 and PGE2 -Caymen Chemical).
The total eicosanoid level in 2 ml of blood is calculated and reported as ng/10^6 neutrophils. Significance is determined by a one-way analysis of variance with least significant difference (LSD) comparisons to control (p≤0.05) and IC50 's (μM) are determined by regression analysis (Finney, 1978). Drug effects are expressed as percent change from control values.

Assay [2] concerns Lipoxygenase. In words: Ex-Vivo Measurement of Lipoxygenase Inhibition in Orally Dosed Rats (LTB4). Also on record: species or system rat (male Sprague Dawley). The settings on record: p.o. The protocol: 2. Ex-Vivo Measurement of Lipoxygenase Inhibition in Orally Dosed Rats
Male Sprague Dawley rats (Charles River) weighing between 180 g and 200 g were dosed orally with an invention compound (1-25 mg/kg, po) suspended in 0.5% Tween 80®. After an interval of 3 or 6 hours, the rats were anesthetized with metofane (n=4/group) and blood collected in heparinized tubes. White blood cell counts and differentials were made. One ml of blood from each animal was placed in a 5 ml plastic tube in a shaker bath at 37° C. A23187 at a final concentration of 10 μM was added to the blood and the blood vortexed and incubated for 15 min at […] with gentle shaking. Incubation was terminated by vortexing sample and centrifuging immediately at 1200 xG for 15 min at 4° C. The plasma was transferred to 15 ml plastic tubes each containing 8 ml of methanol to precipitate protein followed by vortexing. The samples were stored at -70 ° C. overnight and the next day the samples were centrifuged at 800 xG for 15 min to pellet the precipitate. The samples were dried in a Savant SpeedVac Concentrator Model SVC 200H and reconstituted to the original volume with cold RIA or ELISA buffer. The reconstituted samples were stored at -70° C. until assayed. The assay for LTB4 was performed according to the directions of the [^3 H]RIA kit or ELISA kit (Seragen). The total metabolite level in 1 ml of blood is calculated and reported as ng/10^6 neutrophils. Significance is determined by a one-way analysis of variance with LSD comparisons to control (p≤0.05).

Where [3] appears, read: 10 mg/kg, pretreatment period 6 hr.

By inhibition is commonly meant how much of the control response was suppressed.

The structures appear in SMILES notation.

For `Cc1oc(-c2ccc(F)cc2)nc1COc1cccc(CN(O)C(N)=O)c1` [Example 9, 1-[3-[2-(4-fluorophenyl)-5-methyl-oxazol-4-ylmethoxy]-benzyl]-1-hydroxy-urea], the inhibition at 1 µM in assay [1] came to 74%. Also, in assay [2] (setting [3]), the “% Inhibition of LTB4” value is 50%.
For the compound `Cc1oc(-c2ccccc2)nc1COc1cc(F)cc(CN(O)C(N)=O)c1` [Example 13, 1-[3-Fluoro-5-(5-methyl-2-phenyl-oxazol-4-ylmethoxy)-benzyl]-1-hydroxy-urea], in assay [1], the inhibition at 1 µM turned out to be 70%. The “% Inhibition of LTB4” value in assay [2] (5 mg/kg, pretreatment period 6 hr) is given as 52%.
In the case of `Cc1oc(-c2ccccc2)nc1COc1cccc(CN(O)C(N)=O)c1` [Example 1, 1-Hydroxy-1-[3-(5-methyl-2-phenyl-oxazol-4-ylmethoxy)-benzyl]-urea], the inhibition at 1 µM in assay [1] turned out to be 52%. In assay [2] (25 mg/kg, pretreatment period 3 hr), the “% Inhibition of LTB4” value stood at 86%.
Regarding `NC(=O)N(O)Cc1cccc(OCc2csc(-c3ccc(Cl)cc3)n2)c1` [Example 6, 1-Hydroxy-1-[3-[2-(4-chloro-phenyl)-thiazol-4-ylmethoxy]-benzyl]-urea], in assay [1], the inhibition at 1 µM amounted to 68%. Also, the “% Inhibition of LTB4” value in assay [2] (setting [3]) is reported as 67%.
For `NC(=O)N(O)Cc1cccc(OCc2csc(-c3ccccc3)n2)c1` [Example 5, 1-Hydroxy-1-[3-(2-phenyl-thiazol-4-ylmethoxy)-benzyl]-urea], in assay [1], the inhibition at 1 µM came to 66%. Further, in assay [2] (setting [3]), the “% Inhibition of LTB4” value came to 80%.
